ChEMBL document CHEMBL1136785, “Design and structure-activity relationships of 2-alkyl-3-aminomethyl-6-(3-methoxyphenyl)-7-methyl-8-(2-fluorobenzyl)imidazolo[1,2-a]pyrimid-5-ones as potent GnRH receptor antagonists” (J Med Chem, 2003)

Target: T1, Gonadotropin-releasing hormone receptor (Homo sapiens, UniProt P30968)
T1 sequence (P30968 whole entry): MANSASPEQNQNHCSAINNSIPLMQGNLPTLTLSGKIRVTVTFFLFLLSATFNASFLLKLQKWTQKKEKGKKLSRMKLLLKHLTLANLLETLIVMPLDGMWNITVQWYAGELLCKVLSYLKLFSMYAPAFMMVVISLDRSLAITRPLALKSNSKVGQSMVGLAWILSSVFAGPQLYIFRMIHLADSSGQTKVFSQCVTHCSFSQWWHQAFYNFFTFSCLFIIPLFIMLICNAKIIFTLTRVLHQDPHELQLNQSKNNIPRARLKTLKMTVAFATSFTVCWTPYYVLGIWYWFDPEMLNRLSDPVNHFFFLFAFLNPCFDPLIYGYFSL
Assay: Binding affinity against human gonadotropin-releasing hormone receptor

Row | Compound | Ki [nM]
1 | COc1cccc(-c2c(C)n(Cc3ccccc3F)c3nc(C(C)(C)C)c(CNCc4ccccc4)n3c2=O)c1 | 240
2 | COc1cccc(-c2c(C)n(Cc3ccccc3F)c3nc4c(n3c2=O)CN(CCc2ccccn2)CC4(C)C)c1 | 12000
3 | COCCN(C)Cc1c(C(C)(C)C)nc2n(Cc3ccccc3F)c(C)c(-c3cccc(OC)c3)c(=O)n12 | 430
4 | COC(=O)C(C)(C)c1nc2n(Cc3ccccc3F)c(C)c(-c3cccc(OC)c3)c(=O)n2c1CN(C)CCc1ccccn1 | 1.2
5 | COc1cccc(-c2c(C)n(Cc3ccccc3F)c3nc(C(C)(C)C)c(CNCC4CCCCC4)n3c2=O)c1 | 430
6 | COc1cccc(-c2c(C)n(Cc3ccccc3F)c3nc(C(C)(C)C)c(CNCC4CCCC4)n3c2=O)c1 | 6400
7 | COC(=O)C(C)(C)c1nc2n(Cc3ccccc3F)c(C)c(-c3cccc(OC)c3)c(=O)n2c1CN(C)Cc1ccccn1 | 4.2
8 | COC(=O)C(C)(C)c1nc2n(Cc3ccccc3F)c(C)c(-c3cccc(OC)c3)c(=O)n2c1CN1CCc2ccccc2C1 | 9200
9 | COc1cccc(-c2c(C)n(Cc3ccccc3F)c3nc(C(C)(C)CO)c(CN(C)Cc4ccccn4)n3c2=O)c1 | 8
10 | COc1cccc(-c2c(C)n(Cc3ccccc3F)c3nc(C(C)(C)C)c(CN(C)CCc4ccccc4)n3c2=O)c1 | 190
11 | COC(=O)C(C)(C)c1nc2n(Cc3ccccc3F)c(C)c(-c3cccc(OC)c3)c(=O)n2c1CN1CCC(c2ccccc2)CC1 | 5100
12 | COCCN(C)Cc1c(C(C)(C)C(=O)OC)nc2n(Cc3ccccc3F)c(C)c(-c3cccc(OC)c3)c(=O)n12 | 300
13 | COc1cccc(-c2c(C)n(Cc3ccccc3F)c3nc(C(C)(C)C)c(CNCCc4ccccn4)n3c2=O)c1 | 160
14 | COC(=O)C(C)(C)c1nc2n(Cc3ccccc3F)c(C)c(-c3cccc(OC)c3)c(=O)n2c1CN(C)CCc1ccccc1 | 130
15 | COc1cccc(-c2c(C)n(Cc3ccccc3F)c3nc(C(C)(C)CNCCc4ccccn4)cn3c2=O)c1 | 350
16 | COc1cccc(-c2c(C)n(Cc3ccccc3F)c3nc(C(C)(C)C)c(CN(C)Cc4ccccc4)n3c2=O)c1 | 72
17 | COC(=O)C(C)(C)c1nc2n(Cc3ccccc3F)c(C)c(-c3cccc(OC)c3)c(=O)n2c1CN(C)Cc1cccnc1 | 400
18 | CCN(CC)CCN(C)Cc1c(C(C)(C)C)nc2n(Cc3ccccc3F)c(C)c(-c3cccc(OC)c3)c(=O)n12 | 260
19 | COc1cccc(-c2c(C)n(Cc3ccccc3F)c3nc(C(C)(C)C)c(CN(C)C)n3c2=O)c1 | 1700
20 | COc1cccc(-c2c(C)n(Cc3ccccc3F)c3nc(C(C)(C)C)c(CN(C)Cc4ccccn4)n3c2=O)c1 | 11
21 | CCCCN(C)Cc1c(C(C)(C)C(=O)OC)nc2n(Cc3ccccc3F)c(C)c(-c3cccc(OC)c3)c(=O)n12 | 320
22 | COc1cccc(-c2c(C)n(Cc3ccccc3F)c3nc(C(C)(C)C)c(CNCc4ccccn4)n3c2=O)c1 | 30
23 | COc1cccc(-c2c(C)n(Cc3ccccc3F)c3nc(C(C)(C)C)c(CN(C)CCc4ccccn4)n3c2=O)c1 | 5.2
24 | COC(=O)C(C)(C)c1nc2n(Cc3ccccc3F)c(C)c(-c3cccc(OC)c3)c(=O)n2c1CN(C)Cc1ccccc1 | 59
25 | COC(=O)C(C)(C)c1nc2n(Cc3ccccc3F)c(C)c(-c3cccc(OC)c3)c(=O)n2c1CN1CCN(C)CC1 | 7700
26 | COC(=O)C(C)(C)c1nc2n(Cc3ccccc3F)c(C)c(-c3cccc(OC)c3)c(=O)n2c1CN(C)Cc1ccccc1O | 490
27 | CCN(CCc1ccccn1)Cc1c(C(C)(C)C)nc2n(Cc3ccccc3F)c(C)c(-c3cccc(OC)c3)c(=O)n12 | 7.9
